The test has as its system osteoarthritis model rats. Put plainly: Osteoarthritis regeneration after intra-articular injection in osteoarthritis animal model. Format: in vivo. The settings on record: injected into knee joints at 6 and 9 weeks after surgery, euthanized at 14 weeks. As for the experimental part:
The rats were euthanized at 14 weeks, and joint tissues were separated and fixed in 10% paraformaldehyde, and then treated with 6% nitric acid for to decalcification. The tissues were embedded in a Tissue-Tek O.C.T. compound (Sakura Finetek Japan Co., Ltd.), sectioned to 10 μm and attached to a slide glass, and thereafter, staining with Safranin-O/fast green and immunofluorescence of collagen type II (COL2A1) and aggrecan were performed.

As for `O=C(O)c1ccccc1C(=O)Nc1ccc(-c2ccccc2)cc1` [kartogenin], the “COL2 protein (immunofluorescent staining)” value is recorded as “noticeable reduction”; the “aggrecan protein (immunofluorescent staining)” value was “noticeable reduction”; the “cartilage histology (Safranin-O/fast green)” value was “weak vertical matrix cracks in a deep area of cartilage and loss and surface peeling of cartilage”.

The record behind these values is US10064832B2, “Kartogenin-conjugated chitosan particles with improved sustained release property and biocombatibility, and use thereof” (priority 2014, dated 2018).
